The values below come from article PMC11833736 (ACS Pharmacology & Translational Science, 2025).

Broadly, the EC50 is the midpoint of the concentration-response curve. One may read the LogP as the decadic logarithm of the partition coefficient of the neutral form, usually between octanol and water.

The structures appear in SMILES notation. Where “and” joins values, the source holds several entries; their conditions need not be identical. Equal values may be shown once.

Data set [1] concerns SH-SY5Y cells. Nature of the data set: Cytotoxicity, SRB end-point assay, dark or green light. The data set is classed as cell-based. Particulars: for EC50: kept in the dark, SRB, normoxic (21% O2).
In data set [2] the test system is U-87MG cells. In words: Ru cellular uptake by ICP-MS. The data set is classed as in vitro ADME. Particulars: 10 μM; for Ru cellular uptake: dark. An excerpt: The cellular accumulation of Ru^2+ can provide additional information about how differences in anticancer efficacy may relate to the amount of the Ru prodrug in the cell before light activation. For instance, low uptake often leads to limited cytotoxicity due to limited access to the drug target. […] Similar results have been observed in A549 lung cancer cells previously.[56] […] For unknown reasons, it appears that the amine bridge in the i-diqa ligand facilitates the uptake of ruthenium compound [3](PF6)2.
Materials: 65% nitric acid (Suprapur, Merck) was used in the sample digestion process, while diluted 1% nitric acid (v/v) was employed as a carrying solution throughout the ICP measurements. For preparation of calibration and internal standards, National Institute of Standards and Technology (NIST)-traceable 1000 mg/L elemental standards were used (TraceCERT, Fluka). Approximately 18 MΩ cm^–1 water (Milli-Q) was employed in all sample preparation and analysis steps.
Instrumentation: Calibration standards were prepared in a Secuflow fume hood (SCALA) to prevent contamination by atmospheric particulates. The standard samples and measurement samples were analyzed for trace elements using the NexION 2000 (PerkinElmer) ICP-MS instrument equipped with a concentric glass nebulizer and a Peltier-cooled glass spray chamber. An SC2 DX autosampler (PerkinElmer) was connected to ICP-MS for sample introduction. Syngistix software for ICP-MS (v.2.5, PerkinElmer) was used for all data recording and processing. Five trace elemental calibration standards for ICP-MS analysis were prepared using NIST-traceable 1000 mg/L Ru standards: 0, 1, 5, 20, and 100 μg/L. Samples were analyzed without dilution in the original delivery containers to minimize the possibility of contamination. Here, 10 μg/L Rh and In were used as internal standards. To check the calibration, samples were analyzed with a blank measurement and a repeat measurement with one of the calibration standards.
Sample preparation: 1 mL of U-87MG cells were seeded in 12-well plates (Greiner, No. 665180; 400.000 cells per well). […] Afterward, the cells were trypsined, collected, and centrifuged. The resulting cell pellet was dissolved in 1 mL of PBS and counted via a BioRad TC20 automated cell counter. Afterward, the solution was centrifuged and washed again with PBS with subsequent centrifuging. This washing step was repeated twice. The resulting cell pellet was digested in 0.5 mL of 65% HNO3 overnight in a hot oven (90 °C). The solution was diluted with Milli-Q water to 10 mL, and the Ru content [ppb] was measured by ICP-MS.

Data set [3] concerns SH-SY5Y cells. Nature of the data set: Ru cellular uptake by ICP-MS, dark or green light. The format is in vitro ADME. Particulars: kept in the dark. The protocol: These surprising results led us to further investigate whether the uptake of the respective compounds plays a pivotal role in the alternation of the proliferation. […] The complex was allowed to incubate for 24 h after irradiation before the ruthenium cellular content was analyzed by ICP-MS. […] We finally decided to incubate the SH-SY5Y cells with the EC50 values obtained from the cytotoxicity experiment using the U-87MG cell, as those procedures would allow one to observe the effect of the prodrug on the healthy neuron-like cells when treated with the phototoxic compound dose. […] Overall, cellular uptake in neuron-like SH-SY5Y cells followed the same trends as those for GBM cells U-87MG in the dark, while uptake was much higher after light activation.
(§1) 1 mL of SH-SY5Y cells were seeded in 12-well plates (Greiner, No. 665180; 500.000 cells per well). […] After an additional 24 h of incubation, the cells were trypsined, collected, and centrifuged. The resulting cell pellet was dissolved in 1 mL of PBS and counted via a BioRad TC20 automated cell counter. Afterward, the solution was centrifuged and washed again with PBS with subsequent centrifuging two more times. The resulting cell pellet was digested in 0.5 mL of HNO3 overnight in a hot oven (90 °C). The solution was diluted with Milli-Q water to 10 mL, and the Ru and Ca content [ppb] was measured via ICP-MS.

The test system of data set [4] is SH-SY5Y cells. In words: Intracellular Ca content by ICP-MS, dark or green light. The format is cell-based. Conditions: for Ca uptake, Dark: kept in the dark. The method, then: Six hours after compound addition, the cells were irradiated with green light or kept in the dark. Intracellular Ca^2+ levels were then assessed by ICP-MS 24 h after light activation. The NMDA and α-amino-3-hydroxy-5-methyl-4-isoxazole propionic acid (AMPA) receptors being glutamate-gated cation channels allow for an increase of calcium permeability of the neuron membrane; we also used L-glutamic acid (GA, 10 μM), a known NMDA and AMPA activator, as positive control in this assay.
as §1

A short description of data set [5]: Stability in the dark in the presence of L-glutathione (UV-vis). The data set is classed as physicochemical. Conditions: water, 37 °C, 500 μM L-glutathione, spectra after 2 and 24 h. The method, then:
The synthesis and characterization of all three complexes have been described earlier and can be found in refs ([56]) and ([57]). In water or OptiMEM cell medium, the complexes were also previously found to be stable in the dark for at least 24 h at 37 °C. Upon blue or green light irradiation (λ = 452 or 517 nm), they are activated by photosubstitution of the thioether ligand to afford the aqua ruthenium complex and the free thioether ligand.[56] […] The UV–vis spectra were then recorded after 2 and 24 h separately. […] Additionally, we could not observe any color change, which is typical when one of the ligands is exchanged against another one.
UV–vis spectroscopy experiments were performed on a Cary 60 Varian spectrometer equipped with a temperature control set to 310 K and a magnetic stirrer. The measurements were performed in a quartz cuvette containing 3 mL of solution. […] Then, the UV–vis spectrum was recorded without the presence of GSH. After 4 min, GSH was added (0.5 mM) and UV–vis spectra were recorded directly after and after 2 and 24 h, while the vial was kept in the dark and at 37 °C.

The conditions of data set [6]: cited from earlier work.
In data set [7] the test system is U-87MG glioblastoma cells. Nature of the data set: Cytotoxicity, SRB end-point assay, dark or green light. Conditions: read-out: EC50,D, kept in the dark, 24 h + 48 h incubation, normoxic (21% O2).

Consider `CSCCO.F[P-](F)(F)(F)(F)F.F[P-](F)(F)(F)(F)F.[Ru+2].c1ccc(-c2cccc(-c3ccccn3)n2)nc1.c1ccc2cc(-c3cc4ccccc4cn3)ncc2c1` [[2](PF6)2], for which the “concentration required to block cell growth” value in data set [1] (in the dark) is more than 40 µM. Also, the EC50 is more than 100 µM in data set [1]; 19 µM and 19.4 µM in data set [7]. The Uptake in % in data set [2] (6 h) is 0.8% and 0.82%; in data set [2] (24 h) it was 1.5%. Also, the Ru cellular uptake in data set [2] (6 h incubation) was 0.5 ng Ru/mio. cells and 0.54 ± 0.08 ng Ru/mio. cells; in data set [2] (24 h incubation) it was 0.82 ± 0.09 ng Ru/mio. cells. The “Ru uptake, Dark” value in data set [3] (20 μM) was 1.02 ± 0.63 ng Ru/mio. cells and 1.0 ng Ru/mio. cells. Moreover, the “Ca uptake, Dark” value in data set [4] (20 μM) is 279.12 ± 56 ng Ca/mio. cells and 279 ng Ca/mio. cells. Further, in data set [5], the “stability in the dark with GSH (UV-vis, in words)” value is listed as “no isosbestic points suggesting ligand exchange were observed”. Besides, the lipophilicity (LogP) in data set [6] is reported as 3.08.

Turning to `CSCCO.F[P-](F)(F)(F)(F)F.F[P-](F)(F)(F)(F)F.[Ru+2].c1ccc(-c2cccc(-c3ccccn3)n2)nc1.c1ccc2cc(Nc3cc4ccccc4cn3)ncc2c1` [[3](PF6)2], the EC50 came to 34.2 µM in data set [1] and 37 µM in data set [7]. Further, the Uptake in % was 12.4% in data set [2] (6 h) and approximately 11.5% in data set [2] (24 h). In addition, the Ru cellular uptake in data set [2] (6 h incubation) was 2.1 ng Ru/mio. cells and 2.14 ± 0.49 ng Ru/mio. cells; in data set [2] (24 h incubation) it was 1.98 ng Ru/mio. cells and 1.98 ± 0.33 ng Ru/mio. cells. Moreover, the “Ru uptake, Dark” value in data set [3] (10 μM) was 2.44 ± 0.63 ng Ru/mio. cells and 2.4 ng Ru/mio. cells. Further, the “increase of intracellular Ca^2+ content after light irradiation” value in data set [4] (10 μM, green light versus dark) stood at 3 fold. For the same compound, the “Ca uptake, Dark” value in data set [4] (10 μM) was 163.37 ± 93 ng Ca/mio. cells and 163 ng Ca/mio. cells. Further, the “stability in the dark with GSH (UV-vis, in words)” value in data set [5] is recorded as “no isosbestic points suggesting ligand exchange were observed”. For the same compound, in data set [6], the LogP is on record as 2.92.
